This is an account of results in patent EP0471756B1, “SACCHARIN DERIVATIVES USEFUL AS PROTEOLYTIC ENZYME INHIBITORS AND PREPARATION THEREOF” (priority 1989, dated 1990).

Assay [1] concerns the target T1, human leukocyte elastase (HLE) (Homo sapiens, UniProt P08246).
T1 sequence (P08246 30-267): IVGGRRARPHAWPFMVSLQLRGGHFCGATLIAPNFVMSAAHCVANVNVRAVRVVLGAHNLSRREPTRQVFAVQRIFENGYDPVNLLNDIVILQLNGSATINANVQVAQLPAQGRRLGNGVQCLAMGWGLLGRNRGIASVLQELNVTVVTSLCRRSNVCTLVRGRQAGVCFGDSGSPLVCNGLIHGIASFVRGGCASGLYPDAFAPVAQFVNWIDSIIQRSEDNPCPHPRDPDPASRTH
The assay is described as follows: Inactivation of human leukocyte elastase: kon measured, Ki* = koff/kon calculated. It counts as biochemical. To be noted: Elastase; for kinact/KI: rate of inactivation kon = kobs/[I], value is kon x 10^-3, read-out: 10^-3 x kon; for Ki: Ki* = koff/kon, not a truly reversible inhibition constant.
Protocol: (§1) Thus, instead of measuring a Ki, a Ki* is calculated which is defined as the ratio of the koff/kon, the rate of reactivation of the enzyme to the rate of inactivation of the enzyme. The values of koff and kon are measured and Ki* is then calculated.
(§2) The rate of inactivation, kon, of enzymatic activity was determined for the compounds tested by measuring the enzyme activity of an aliquot of the respective enzyme as a function of time after addition of the test compound. […] The rate of inactivation is then equal to kon =(kobs)/([I]) [formula] where [I] is the concentration of the inhibiting compound.
(§3) The reactivation constant, koff, is similarly determined and the inhibition constant, Ki*, is then calculated as Ki * = koff /kon [formula]

The target of the next assay is α-Chymotrypsin (Bos taurus, UniProt P00766). The assay is described as follows: Inactivation of α-chymotrypsin: kon measured, Ki* = koff/kon calculated. It counts as biochemical. The note with it: rate of inactivation kon = kobs/[I], value is kon x 10^-3.

Bounds are passed on as bounds.

Protocol for α-Chymotrypsin: as §1, §2, §3

As for `CC(=O)OCN1C(=O)c2c(C)cccc2S1(=O)=O` [Example 1, 2-acetoxymethyl-4-methylsaccharin], the kinact/KI in assay [1] was 630 M⁻¹ s⁻¹; at α-Chymotrypsin it was 1200 M⁻¹ s⁻¹.

On to `CC(=O)OCN1C(=O)c2c(Cl)cccc2S1(=O)=O` [Example 2, 2-acetoxymethyl-4-chlorosaccharin], for which the figures for the kinact/KI (in assay [1]; at α-Chymotrypsin) were 4900 M⁻¹ s⁻¹ and 2900 M⁻¹ s⁻¹, respectively.

`O=C1c2c(Cl)cccc2S(=O)(=O)N1CCl` [Example 3, 2-chloromethyl-4-chlorosaccharin]: the kinact/KI in assay [1] is 450000 M⁻¹ s⁻¹; at α-Chymotrypsin, 5800 M⁻¹ s⁻¹.

Consider `O=C1c2c(Cl)cccc2S(=O)(=O)N1Cn1nnn(-c2ccccc2)c1=S` [Example 5, 4-chloro-2-(4-phenyl-5-thioxotetrazolin-1-ylmethyl)saccharin], for which the results for the kinact/KI (in assay [1]; at α-Chymotrypsin) were 44000 M⁻¹ s⁻¹ and 6000 M⁻¹ s⁻¹, respectively.

For `CC(=O)Nc1cccc(-n2nnnc2SCN2C(=O)c3ccccc3S2(=O)=O)c1` [Example 6, 2-[1-(3-acetamidophenyl)-1H-tetrazol-5-ylthiomethyl]saccharin], the values for the kinact/KI (in assay [1]; at α-Chymotrypsin) were 5500 M⁻¹ s⁻¹ and 3700 M⁻¹ s⁻¹, respectively.

Consider `Cn1nnnc1SCN1C(=O)c2ccccc2S1(=O)=O` [Example 8, 2-(1-methyl-1H-tetrazol-5-ylthiomethyl)saccharin], for which the Ki in assay [1] was 0.081 µM. Besides, the kinact/KI is 1000 M⁻¹ s⁻¹ in assay [1] and 2100 M⁻¹ s⁻¹ at α-Chymotrypsin.

For `O=C1c2ccccc2S(=O)(=O)N1C[S+]([O-])c1nnnn1-c1ccccc1` (stereo not shown) [Example 10, 2-(1-phenyl-1H-tetrazol-5-ylsulfinylmethyl)saccharin], the kinact/KI (in assay [1]; at α-Chymotrypsin) was 7000 M⁻¹ s⁻¹ each time.

Take `O=C1c2ccccc2S(=O)(=O)N1CS(=O)(=O)c1ccccc1` [Example 12, 2-(phenylsulfonylmethyl)saccharin]: the kinact/KI is 970 M⁻¹ s⁻¹ in assay [1] and 1100 M⁻¹ s⁻¹ on α-Chymotrypsin.

In the case of `O=C1c2ccccc2S(=O)(=O)N1C[S+]([O-])c1ncccn1` (stereo not shown) [Example 13, 2-(2-pyrimidylsulfinylmethyl)saccharin], the kinact/KI was 300 M⁻¹ s⁻¹ in assay [1] and 2600 M⁻¹ s⁻¹ on α-Chymotrypsin.

On to `O=C1c2ccccc2S(=O)(=O)N1CS(=O)(=O)c1ncccn1` [Example 14, 2-(2-pyrimidylsulfonylmethyl)saccharin], for which the kinact/KI in assay [1] was 600 M⁻¹ s⁻¹; on α-Chymotrypsin, 2800 M⁻¹ s⁻¹.

As to `O=C1c2c(-c3ccccc3)cccc2S(=O)(=O)N1CCl` [Example 18, 2-chloromethyl-4-phenylsaccharin], the kinact/KI in assay [1] is 1000 M⁻¹ s⁻¹; on α-Chymotrypsin it was 210 M⁻¹ s⁻¹.

Turning to `O=C1c2ccccc2S(=O)(=O)N1CSc1ncccn1` [Example 30F, 2-(2-pyrimidylthiomethyl)saccharin], the Ki in assay [1] was over 85 µM.

As to `O=C1C=Cc2ccc(OCN3C(=O)c4ccccc4S3(=O)=O)c3cccc1c23` [Example 30G], in assay [1], the kinact/KI is 9300 M⁻¹ s⁻¹.

For `O=C1c2ccccc2S(=O)(=O)N1CSc1nncn1-c1ccccc1` [Example 30I], in assay [1], the kinact/KI is 450 M⁻¹ s⁻¹.

With `CCc1cccc2c1C(=O)N(CSc1nnnn1CCN1CCOCC1)S2(=O)=O` [Example 30J], the kinact/KI in assay [1] is 14000 M⁻¹ s⁻¹.

`CCOc1ccc(OCCOCCOC)c2c1C(=O)N(CSc1nnnn1-c1ccccc1)S2(=O)=O` [Example 30L]: in assay [1], the kinact/KI was 6500 M⁻¹ s⁻¹.

Consider `COCCOCCOc1ccc(OC)c2c1S(=O)(=O)N(CSc1nnnn1-c1ccccc1)C2=O` [Example 30M], for which the kinact/KI in assay [1] was 1000 M⁻¹ s⁻¹.

As for `O=C1c2ccccc2S(=O)(=O)N1CSc1nnc2ccccn12` [Example 30N], in assay [1], the kinact/KI is 250 M⁻¹ s⁻¹.

Consider `O=C1c2ccccc2S(=O)(=O)N1CSc1nnnn1-c1cccnc1` [Example 30Q], for which, in assay [1], the kinact/KI was 1380 M⁻¹ s⁻¹.

In the case of `O=C1c2ccccc2S(=O)(=O)N1Cn1nnn(-c2cccnc2)c1=S` [Example 30R], the kinact/KI in assay [1] is 2300 M⁻¹ s⁻¹.

For the compound `Cn1nnc(SCN2C(=O)c3ccccc3S2(=O)=O)n1` [Example 30X], in assay [1], the kinact/KI is 550 M⁻¹ s⁻¹.

On to `CC(C)c1cccc2c1C(=O)N(Cn1nnn(-c3cccnc3)c1=S)S2(=O)=O` [Example 30Z], for which, in assay [1], the kinact/KI was 70000 M⁻¹ s⁻¹.

Turning to `O=C1c2ccc([N+](=O)[O-])cc2S(=O)(=O)N1CSc1nnnn1-c1ccccc1` [Example 31C], the kinact/KI in assay [1] is 3400 M⁻¹ s⁻¹.

Consider `O=C1c2ccccc2S(=O)(=O)N1CS(=O)(=O)c1c(Cl)cccc1Cl` [Example 32A, 2-(2,6-dichlorophenylsulfonylmethyl)saccharin], for which the kinact/KI in assay [1] was 600 M⁻¹ s⁻¹.

On to `O=C1c2ccccc2S(=O)(=O)N1CSc1nnc(SCCN2CCOCC2)s1` [Example 33, 2-(5-[2-(4-morpholinyl)ethylthio]-1,3,4-thiadiazol-2-ylthiomethyl)saccharin], for which the kinact/KI in assay [1] was 3600 M⁻¹ s⁻¹.

For `CN(C)CCSc1nnc(SCN2C(=O)c3ccccc3S2(=O)=O)s1` [Example 33B, 2-(5-[2-(N,N-dimethylamino)ethylthio]-1,3,4-thiadiazol-2-ylthiomethyl)saccharin], the kinact/KI in assay [1] was 4000 M⁻¹ s⁻¹.

As for `O=C1c2ccccc2S(=O)(=O)N1CSc1nnc(SCCN2CCCCC2)s1` [Example 33C, 2-(5-[2-(1-piperidinyl)ethylthio]-1,3,4-thiadiazol-2-ylthiomethyl) saccharin], the kinact/KI in assay [1] is 200 M⁻¹ s⁻¹.

On to `O=C(O)Cn1nnnc1SCN1C(=O)c2ccccc2S1(=O)=O` [Example 34, 2-[1-(2-carboxymethyl)-1H-tetrazol-5-ylthiomethyl]saccharin], for which the kinact/KI in assay [1] was 400 M⁻¹ s⁻¹.

On to `O=C(O)CCC(=O)Nc1cccc(-n2nnnc2SCN2C(=O)c3ccccc3S2(=O)=O)c1` [Example 35, 2-[1-(3-succinoylaminophenyl)-1H-tetrazol-5-ylthiomethyl]saccharin], for which the kinact/KI in assay [1] was 3600 M⁻¹ s⁻¹.

Consider `CC(=O)Nc1ccc2c(c1)C(=O)N(CSc1nnnn1-c1ccccc1)S2(=O)=O` [Example 37, 5-acetylamino-2-(1-phenyl-1H-tetrazol-5-ylthiomethyl)saccharin], for which, in assay [1], the Ki is over 90 µM.

For `O=C1c2ccccc2S(=O)(=O)N1/C=C/CSc1nnnn1-c1ccccc1` [Example 38, trans-2-[3-(1-phenyl-1H-tetrazol-5-ylthio)-1-propenyl]saccharin], the kinact/KI in assay [1] was 43000 M⁻¹ s⁻¹.
